One data set relates to liver MPS cells. In words: Liver MPS intracellular accumulation. Format: in vitro ADME, human. As to conditions: 72h after dosing; Gut / Liver and Liver only arms.
In data set [1] the test system is gut MPS and liver MPS on-platform. As to the kind of experiment: Drug and metabolite concentration-time profiles on the multi-MPS platform. Format: in vitro ADME, human. The conditions noted are these: Gut only arm.
For data set [2] the following is noted: LiverChip technology; cited from earlier work.
In a further data set the test system is human hepacyte cultures. As to conditions: human hepatocyte cultures; cited from earlier work.
The conditions of data set [3]: fixed model parameter, same value in all arms; cited from earlier work.
Data set [4] can be described thus: Intrinsic metabolic clearance of the liver MPS on the multi-MPS platform. Format: in vitro ADME, human. The conditions noted are these: human.
Data set [5] deals with liver MPS (human primary cryopreserved hepatocytes and Kupffer cells). The description is as above. Format: in vitro ADME. As to conditions: posterior mean (SD).

Some results are limits rather than exact numbers.

Regarding `O=C(O)Cc1ccccc1Nc1c(Cl)cc(O)cc1Cl` [4-OH-DCF, 4-hydroxy-diclofenac], in the data set on liver MPS cells, the “intracellular accumulation in liver MPS (Kp, cells vs liver compartment medium)” value was “substantial”. Further, the “4-OH-DCF levels (mixing chamber concentration)” value in data set [1] (after 40 μM DCF dose) was < 0.05 µM.
`O=C(O)Cc1ccccc1Nc1c(Cl)cccc1Cl` [DCF, diclofenac]: the “intracellular accumulation in liver MPS (Kp, cells vs liver compartment medium)” value with liver MPS cells was “substantial”. Besides, the “non-specific binding to PSF” value in data set [2] is listed as “absence of non-specific binding”. Also, in data set [1] (after the dose), the “time at which concentration-time profiles reach a plateau” value is on record as “approximately 24 hours”. The Clintl in the data set on human hepacyte cultures is reported as 17.8 μL/min/10^6 cells. Besides, the “fum (DCF fraction unbound in circulating common medium)” value in data set [3] is recorded as 0.13. This compound came in with an intrinsic metabolic clearance (hepatocyte CLint) at 40 μM in data set [4] of 17 µL/min/1e6 cells. For the same compound, the “CLintl (intrinsic metabolic DCF clearance of the liver MPS)” value in data set [5] (Gut / Liver arm, 40 μM DCF to gut apical side) is reported as 10.18 (0.46) μL/min; in data set [5] (Liver only arm, 40 μM DCF to mixing chamber) it was 8.99 (0.20) μL/min.

By hepatocyte CLint is commonly meant a measure of how fast metabolising enzymes remove a compound, apart from limits set by blood flow. Read a low hepatocyte CLint as slow turnover.

These data come from PMC6540747 (The AAPS journal, 2017).
